pIC50: −log10 of the molar value.
Key:
[1] = target: T1, Recombinant STAT6 protein (STAT6(W123-T658)) (Homo sapiens, UniProt P42226); test: STAT6 Fluorescence Polarization (FP) Assay; type: binding; settings: STAT6(W123-T658) 250 nM, probe 5-FAM-ApYKPFQDLI-NH2 2 nM, 45-minute incubation
T1 construct: Recombinant STAT6 protein (STAT6(W123-T658))
T1 sequence (P42226 123-658): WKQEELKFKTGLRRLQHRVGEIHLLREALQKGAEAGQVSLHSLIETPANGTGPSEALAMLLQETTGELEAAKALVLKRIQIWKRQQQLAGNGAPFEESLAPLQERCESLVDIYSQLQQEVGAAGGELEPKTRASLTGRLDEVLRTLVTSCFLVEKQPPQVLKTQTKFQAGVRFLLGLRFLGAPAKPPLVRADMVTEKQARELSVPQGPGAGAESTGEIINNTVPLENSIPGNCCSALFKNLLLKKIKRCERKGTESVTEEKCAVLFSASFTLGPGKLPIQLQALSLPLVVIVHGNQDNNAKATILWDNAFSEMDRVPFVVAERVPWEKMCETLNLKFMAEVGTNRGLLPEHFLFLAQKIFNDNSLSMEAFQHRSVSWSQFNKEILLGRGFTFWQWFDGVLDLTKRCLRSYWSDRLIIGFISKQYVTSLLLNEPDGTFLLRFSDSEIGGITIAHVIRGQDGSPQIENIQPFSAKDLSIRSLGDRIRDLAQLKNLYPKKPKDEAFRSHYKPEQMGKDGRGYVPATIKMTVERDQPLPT
Summary of the method: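 Displacement of a fluorescent phosphotyrosine peptide (5-FAM-ApYKPFQDLI-NH2, 2 nM) from STAT6(W123-T658) (250 nM), 1% DMSO, pH 7.4 HEPES buffer. After 45 min at room temperature, polarization (mP) was plotted versus log compound concentration and fitted by nonlinear regression to give IC50.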

[2] = target: T2, Recombinant STAT3 protein (STAT3(G127-I722)) (Homo sapiens, UniProt P40763); test: STAT3 Fluorescence Polarization (FP) Assay; type: binding; settings: STAT3(G127-I722) 25 nM, probe 5-FAM-GpYLPQTV-NH2 2 nM, 45-minute incubation
T2 construct: Recombinant STAT3 protein (STAT3(G127-I722))
T2 sequence (P40763 127-722): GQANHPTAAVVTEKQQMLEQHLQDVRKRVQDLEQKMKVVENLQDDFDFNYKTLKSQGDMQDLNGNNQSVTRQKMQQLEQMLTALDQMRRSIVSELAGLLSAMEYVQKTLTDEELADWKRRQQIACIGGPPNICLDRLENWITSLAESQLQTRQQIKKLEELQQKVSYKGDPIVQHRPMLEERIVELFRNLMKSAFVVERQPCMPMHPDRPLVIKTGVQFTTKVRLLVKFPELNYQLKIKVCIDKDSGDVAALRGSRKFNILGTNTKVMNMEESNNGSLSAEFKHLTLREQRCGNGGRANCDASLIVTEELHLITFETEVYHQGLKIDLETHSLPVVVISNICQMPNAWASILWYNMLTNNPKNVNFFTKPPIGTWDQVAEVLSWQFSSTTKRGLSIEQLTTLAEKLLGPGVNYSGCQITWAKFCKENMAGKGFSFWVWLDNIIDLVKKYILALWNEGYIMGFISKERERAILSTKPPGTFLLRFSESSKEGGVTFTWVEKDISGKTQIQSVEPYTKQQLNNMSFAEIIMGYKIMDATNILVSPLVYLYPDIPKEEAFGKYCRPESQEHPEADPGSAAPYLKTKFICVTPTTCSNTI
Summary of the method: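 STAT3(G127-I722), 25 nM, was mixed with 2 nM 5-FAM-GpYLPQTV-NH2 probe in HEPES pH 7.4 buffer with 1% DMSO and serially diluted compound. FP (mP) was read after 45 min at room temperature. IC50 came from nonlinear regression.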

SMILES | pIC50 [1] | pIC50 [2]
CC(=O)N1CC[C@H]2CC[C@@H](C(=O)N(C)c3ccccc3)N2C(=O)[C@@H](NC(=O)c2cc3cc(C(F)(F)P(=O)(O)O)cnc3s2)C1 [Compound 110, ((2-(((5S,8S,10aR)-3-acetyl-8-(methyl(phenyl)carbamoyl)-6-oxodecahydropyrrolo[1,2-a][1,5]diazocin-5-yl)carbamoyl)thieno[2,3-b]pyridin-5-yl)difluoromethyl)phosphonic acid] | 4.52 to 5.52 | 5.00 to 6.00
CC(=O)N1CC[C@H]2CC[C@@H](C(=O)N(C)c3ccccc3)N2C(=O)[C@@H](NC(=O)c2ccc3cc(C(F)(F)P(=O)(O)O)ccc3c2)C1 [Compound 112, ((6-(((5S,8S,10aR)-3-acetyl-8-(methyl(phenyl)carbamoyl)-6-oxodecahydropyrrolo[1,2-a][1,5]diazocin-5-yl)carbamoyl)naphthalen-2-yl)difluoromethyl)phosphonic acid] | < 4.52 | < 5.00
CC(=O)N1CC[C@H]2CC[C@@H](C(=O)N(C)c3ccccc3)N2C(=O)[C@@H](NC(=O)c2ccc3cc(P(=O)(O)O)ccc3c2)C1 [Compound 113, (6-(((5S,8S,10aR)-3-acetyl-8-(methyl(phenyl)carbamoyl)-6-oxodecahydropyrrolo[1,2-a][1,5]diazocin-5-yl)carbamoyl)naphthalen-2-yl)phosphonic acid] | < 4.52 | < 5.00
CC(=O)N1CC[C@H]2CC[C@@H](C(=O)N(C)c3ccccc3)N2C(=O)[C@@H](NC(=O)c2ccc3ccc(P(=O)(O)O)cc3c2)C1 [Compound 114, (7-(((5S,8S,10aR)-3-acetyl-8-(methyl(phenyl)carbamoyl)-6-oxodecahydropyrrolo[1,2-a][1,5]diazocin-5-yl)carbamoyl)naphthalen-2-yl)phosphonic acid] | < 4.52 | < 5.00
CC(=O)N1CC[C@H]2CC[C@@H](C(=O)N(C)c3ccc4nnccc4c3)N2C(=O)[C@@H](NC(=O)c2ccc3cnc(C(F)(F)P(=O)(O)O)cc3c2)C1 [Compound 119, ((6-(((5S,8S,10aR)-3-acetyl-8-(cinnolin-6-yl(methyl)carbamoyl)-6-oxodecahydropyrrolo[1,2-a][1,5]diazocin-5-yl)carbamoyl)isoquinolin-3-yl)difluoromethyl)phosphonic acid] | 5.52 to 6.52 | < 5.00
CC(=O)N1CC[C@H]2CC[C@@H](C(=O)N(C)c3ccc4nnccc4c3)N2C(=O)[C@@H](NC(=O)c2ccc3ccc(C(F)(F)P(=O)(O)O)nc3c2)C1 [Compound 120, ((7-(((5S,8S,10aR)-3-acetyl-8-(cinnolin-6-yl(methyl)carbamoyl)-6-oxodecahydropyrrolo[1,2-a][1,5]diazocin-5-yl)carbamoyl)quinolin-2-yl)difluoromethyl)phosphonic acid] | 4.52 to 5.52 | < 5.00
CC(=O)N1CC[C@H]2CC[C@@H](C(=O)Nc3ccc(-c4ccccc4)cc3)N2C(=O)[C@@H](NC(=O)/C=C/c2ccc(C(F)(F)P(=O)(O)O)cc2)C1 [Compound 121, ((4-((E)-3-(((5S,8S,10aR)-8-([1,1′-biphenyl]-4-ylcarbamoyl)-3-acetyl-6-oxodecahydropyrrolo[1,2-a][1,5]diazocin-5-yl)amino)-3-oxoprop-1-en-1-yl)phenyl)difluoromethyl)phosphonic acid] | 4.52 to 5.52 | < 5.00
CC(=O)N1CC[C@H]2CC[C@@H](C(=O)N3CC(c4cccnc4)C3)N2C(=O)[C@@H](NC(=O)c2cc3cc(C(F)(F)P(=O)(O)O)ccc3s2)C1 [Compound 122, ((2-(((5S,8S,10aR)-3-acetyl-6-oxo-8-(3-(pyridin-3-yl)azetidine-1-carbonyl)decahydropyrrolo[1,2-a][1,5]diazocin-5-yl)carbamoyl)benzo[b]thiophen-5-yl)difluoromethyl)phosphonic acid] | 5.52 to 6.52 | ≥ 7.00
CC(=O)N1CC[C@H]2CC[C@@H](C(=O)N(C)c3ccc(C#N)cc3)N2C(=O)[C@@H](NC(=O)c2cc3cc(C(F)(F)P(=O)(O)O)ccc3s2)C1 [Compound 123, ((2-(((5S,8S,10aR)-3-acetyl-8-((4-cyanophenyl)(methyl)carbamoyl)-6-oxodecahydropyrrolo[1,2-a][1,5]diazocin-5-yl)carbamoyl)benzo[b]thiophen-5-yl)difluoromethyl)phosphonic acid] | 4.52 to 5.52 | 5.00 to 6.00
CC(=O)N1CC[C@H]2CC[C@@H](C(=O)N(C)c3ccc(OCCN(C)C)cc3)N2C(=O)[C@@H](NC(=O)c2cc3cc(C(F)(F)P(=O)(O)O)ccc3s2)C1 [Compound 125, ((2-(((5S,8S,10aR)-3-acetyl-8-((4-(2-(dimethylamino)ethoxy)phenyl)(methyl)carbamoyl)-6-oxodecahydropyrrolo[1,2-a][1,5]diazocin-5-yl)carbamoyl)benzo[b]thiophen-5-yl)difluoromethyl)phosphonic acid] | 5.52 to 6.52 | 5.00 to 6.00

Next, values leading:

pIC50 [1] | pIC50 [2] | SMILES
5.52 to 6.52 | 5.00 to 6.00 | CC(=O)N1CC[C@H]2CC[C@@H](C(=O)N(C)c3ccccc3)N2C(=O)[C@@H](NC(=O)c2cc3cc(C(F)(F)P(=O)(O)O)ccc3s2)C1 [Compound 109, ((2-(((5S,8S,10aR)-3-acetyl-8-(methyl(phenyl)carbamoyl)-6-oxodecahydropyrrolo[1,2-a][1,5]diazocin-5-yl)carbamoyl)benzo[b]thiophen-5-yl)difluoromethyl)phosphonic acid]
5.52 to 6.52 | < 5.00 | CC(=O)N1CC[C@H]2CC[C@@H](C(=O)N(C)c3ccccc3)N2C(=O)[C@@H](NC(=O)c2ccc3ccc(C(F)(F)P(=O)(O)O)cc3c2)C1 [Compound 111, ((7-(((5S,8S,10aR)-3-acetyl-8-(methyl(phenyl)carbamoyl)-6-oxodecahydropyrrolo[1,2-a][1,5]diazocin-5-yl)carbamoyl)naphthalen-2-yl)difluoromethyl)phosphonic acid]
5.52 to 6.52 | < 5.00 | CC(=O)N1CC[C@H]2CC[C@@H](C(=O)N(C)c3ccccc3)N2C(=O)[C@@H](NC(=O)c2nc3cc(C(F)(F)P(=O)(O)O)ccc3s2)C1 [Compound 115, ((2-(((5S,8S,10aR)-3-acetyl-8-(methyl(phenyl)carbamoyl)-6-oxodecahydropyrrolo[1,2-a][1,5]diazocin-5-yl)carbamoyl)benzo[d]thiazol-5-yl)difluoromethyl)phosphonic acid]
5.52 to 6.52 | 6.00 to 7.00 | CC(=O)N1CC[C@H]2CC[C@@H](C(=O)N3CCC(C(N)=O)c4cc(-c5ccccc5)ccc43)N2C(=O)[C@@H](NC(=O)c2cc3cc(C(F)(F)P(=O)(O)O)ccc3s2)C1 (stereo partly drawn) [Compound 116, ((2-(((5S,8S,10aR)-3-acetyl-8-(4-carbamoyl-6-phenyl-1,2,3,4-tetrahydroquinoline-1-carbonyl)-6-oxodecahydropyrrolo[1,2-a][1,5]diazocin-5-yl)carbamoyl)benzo[b]thiophen-5-yl)difluoromethyl)phosphonic acid]
5.52 to 6.52 | < 5.00 | CC(=O)N1CC[C@H]2CC[C@@H](C(=O)N(C)c3ccc(C(C)(C)C)cc3)N2C(=O)[C@@H](NC(=O)c2ccc3ccc(C(F)(F)P(=O)(O)O)cc3c2)C1 [Compound 117, ((7-(((5S,8S,10aR)-3-acetyl-8-((4-(tert-butyl)phenyl)(methyl)carbamoyl)-6-oxodecahydropyrrolo[1,2-a][1,5]diazocin-5-yl)carbamoyl)naphthalen-2-yl)difluoromethyl)phosphonic acid]
5.52 to 6.52 | < 5.00 | CC(=O)N1CC[C@H]2CC[C@@H](C(=O)N(C)c3ccc4nnccc4c3)N2C(=O)[C@@H](NC(=O)c2ccc3ccc(C(F)(F)P(=O)(O)O)cc3n2)C1 [Compound 118, ((2-(((5S,8S,10aR)-3-acetyl-8-(cinnolin-6-yl(methyl)carbamoyl)-6-oxodecahydropyrrolo[1,2-a][1,5]diazocin-5-yl)carbamoyl)quinolin-7-yl)difluoromethyl)phosphonic acid]
≥ 6.52 | 5.00 to 6.00 | CC(=O)N1CC[C@H]2CC[C@@H](C(=O)N3C[C@H](c4ccccc4)[C@@H](C#N)C3)N2C(=O)[C@@H](NC(=O)c2cc3cc(C(F)(F)P(=O)(O)O)ccc3s2)C1 [Compound 124, ((2-(((5S,8S,10aR)-3-acetyl-8-((3R,4S)-3-cyano-4-phenylpyrrolidine-1-carbonyl)-6-oxodecahydropyrrolo[1,2-a][1,5]diazocin-5-yl)carbamoyl)benzo[b]thiophen-5-yl)difluoromethyl)phosphonic acid]

Source: patent US20250179103A1, “6-OXODECAHYDROPYRROLO[1,2-A][1,5]DIAZOCINE AND 6-OXODECAHYDRO-4H-PYRROLO[2,1-D][1,5]THIAZOCINE DERIVATIVES AS STAT3 AND STAT6 MODULATORS FOR THE TREATMENT OF CANCER AND INFLAMMATORY CONDITIONS” (Recludix Pharma, Inc., priority 2022, published 2025)
